# Measured values as given in publication PMC6104605, “Discovery of new chromen-4-one derivatives as telomerase inhibitors through regulating expression of dyskerin” (Journal of Enzyme Inhibition and Medicinal Chemistry, 2018).
# What was measured:
# [1] = system: human liver cancer cell HepG2; experiment: MTT anticancer assay, HepG2; assay type: cell-based; settings: 48 h exposure, mean ± SD, dash = footnote d 'None'
# Experimental: The MTT was purchased from Sigma. Cell Cycle Analysis Kit and Apoptosis Analysis Kit were purchased from Bestbio (China). Mitochondrial membrane potential assay kit with JC-1 was purchased from Beyotime (China). All the materials were used as received without further purification unless noted specifically. The cell culture was maintained on DMEM medium (Hyclone, US) supplemented with 10% fetal bovine serum (Sijiqing, China), 100 U/mL penicillin and 100 µg/mL streptomycin in 25-cm^2 culture flasks at 37 °C humidified atmosphere with 5% CO2. Drugs were dissolved in DMSO and filtered through 0.22-µm pore-size filter units before addition to cell line appropriate media. When tumor cells were grown to log phase, diluting to 5 × 10^4 cells mL^−1 with the complete medium, 100 µL of the obtained cell suspension was added to each well of 96-well culture plates. The subsequent incubation was performed at 37 °C, 5% CO2 atmosphere for 48 h before subjecting to anti-proliferation assessment. After 48-h exposure period, 20 µL of PBS containing 5 mg·mL^−1 of MTT was added to each well. After 4 h, the medium was replaced by 150 µL DMSO to dissolve the purple formazan crystals produced. The absorbance at 492 nm of each well was measured on an ELISA plate reader. The data represented the mean of three experiments in triplicate and were expressed as means ± SD. The IC50 value was defined as the concentration at which 50% of the cells could survive. The following human tumor cell lines were used in the assay: human gastric cancer cells SGC-7901, human liver cancer cell SMMC-7721 and HepG2, human cervical cancer cell Hela and human glioma cell U87.
# γH2AX = experiment: Western blot, γH2AX; assay type: cell-based, human; settings: SGC-7901, 1, 2 and 4 μM, 48 h
# Experimental: An equivalent volume of 5 × SDS-sample buffer was added to cell lysates and boiled for 10 min. The supernatants were subjected to electrophoresis on SDS-PAGE gels and transferred to PVDF membrane by using a Bio-Rad apparatus. Membranes were blocked for 3 h at room temperature in TBST containing 5% non-fat dried milk and probed overnight at 4 °C with antibodies. CyclinD1 (abcam, ab134175, 1:10000), CDC25A (abcam, ab156574, 1:1000), CDC25C (abcam, ab32051, 1:1000), bcl-2 (abcam, ab32124,1:1000), bax (abcam, ab32503, 1:1000), PARP (abcam, ab191217, 1:1000), γH2AX (abcam, ab81299, 1:5000), dyskerin (abcam, ab156877, 1:1000), NHP2 (abcam, ab180498, 1:1000), NOP10 (abcam, ab133726, 1:1000) antibody was performed with rabbit primary antibody. Otherwise, β-actin (ZSGB-BIO, 1:1000) detection was performed with mouse primary antibody which was served as internal controls. Protein bands of β-actin was visualised using peroxidase-labeled goat anti-mouse and others were visualised using peroxidase-labeled goat anti-rabbit secondary antibody (1:5000 dilution, 1 h, room temperature), and the protein expression signals were detected by the BeyoECL Plus (Beyotime).
smiles,measurement,setting,value
"COc1cc(OC)c2c(=O)c(OCCCCN3CCN(C(=O)c4ccncc4)CC3)c(-c3cc(OC)c(OC)c(OC)c3)oc2c1 [Compound 5i, 3-(4-(4-isonicotinoylpiperazin-1-yl)butoxy)-5,7-dimethoxy-2-(3,4,5-trimethoxyphenyl)-4H-chromen-4-one]",IC50,[1],4.12 ± 0.51 µM
same,expression of γH2AX (western blot),γH2AX,significantly decrease
